Measured values as given in patent US20250282819A1, “MITOCHONDRIA-[…] PEPTIDE THAT CAN BE […] DELIVERED AT NANOMOLAR CONCENTRATION, AND USE THEREOF” (CAMP THERAPEUTICS INC., priority 2021, published 2025).
Where a SMILES comes first, the peptide text is derived from it. [ ]: non-standard residue; d: D form. Cha = N[C@@H](CC1CCCCC1)C(=O)O

How the values were obtained:
[1] = tested on: HeLa cells; assay type: cell-based; conditions: for level of EC50 value (cell-penetrating ability): comparison of CMP3013, LR10, MPP1a, SS-31
Experimental: Cell-penetrating ability was evaluated using the fluorescently-labeled versions of the dimeric bundle peptides synthesized in Example 3, and measured as EC50 values according to the method described in Experimental Example 3.
1×10^5 HeLa cells were seeded into a 24-well plate. After 24 hours, the peptide was added to the cells and further incubation was performed for 3 hours. The incubated cells were harvested, washed with PBS, suspended in PBS, and then analyzed by fluorescence-activated cell sorting (FACS; BD Accuri, USA). The cells whose fluorescence intensity exceeds the maximum intensity of untreated cells were classified as fluorescence-positive cells.

[2] = SPR binding to inner membrane model on sensor chip
Experimental: The surface plasmon resonance (SPR) technique was used to determine binding ability of the peptide to liposome. Specifically, an L1 sensor chip was inserted into a Biacore™ T200 SPR system (Cytiva, USA) and then liposome was injected so that the liposome binds to the sensor chip. Subsequently, 1 μM of NBD-CMP3013m peptide was injected to check the signal intensity increased by the binding of liposome and CMP3013.
Two types of model systems mimicking the inner mitochondrial membrane were constructed using POPC and POPE according to the method described in Experimental Example 12, and NBD-labeled CMP3013 monomer (NBD-CMP3013m) and NBD-labeled SS-31 (NBD-SS-31) were used to compare and analyze their cardiolipin binding ability.

[3] = Cardiolipin binding assay, NBD fluorescence with liposomes
Experimental: To further validate specificity of CMP3013 for cardiolipin-rich membranes identified in Example 9, two model systems mimicking the inner mitochondrial membrane were constructed using POPC (1-palmitoyl-2-oleoyl-sn-glycero-3-phosphocholine) and POPE (1-palmitoyl-2-oleoyl-sn-glycero-3-phosphoethanolamine), and cardiolipin binding assays were performed using an NBD-labeled CMP3013 monomer (NBD-CMP3013m), according to the method described in Experimental Example 12.
For the association experiments, 1 μM of NBD-labeled peptide dissolved in PBS was prepared in a black 96-well plate. Liposome (POPC:POPE=2:1 or POPC:POPE=2:1, containing 10% cardiolipin) was added to the peptide until the desired concentration was achieved. The mixture of NBD-peptide and liposome was mixed well through pipetting, and then fluorescence emission of the sample was monitored (λex=467 nm, λem=536 nm).
For the association experiments depending on cardiolipin ratio, 1 μM of NBD-labeled peptide or C6-NBD dissolved in PBS was prepared in a black 96-well plate. Liposome (POPC:POPE=2:1, containing 0 to 20% cardiolipin) was added to the peptide until the desired concentration (5 μM) was achieved. This mixture was mixed well through pipetting and fluorescence emission of the sample was monitored (λex=467 nm, λem=536 nm).
For dissociation experiments, 1 μM of NBD-labeled peptide dissolved in PBS was prepared in a black 96-well plate. Liposome (POPC:POPE=2:1 or POPC:POPE=2:1, containing 10% cardiolipin) was added to the peptide until the desired concentration (100 μM) was achieved. The mixture of NBD-peptide and liposome was mixed well through pipetting and fluorescence intensity of the mixture was measured (λex=467 nm, λem=536 nm). The unlabeled peptide (acetylated peptide) was then added to the mixture and mixed well through pipetting. Incubation in the dark was performed for 10 minutes, and then changes in fluorescence intensity were monitored. Peptide addition and fluorescence measurement were repeated until the concentration of acetylated peptide reached 40 μM.

[4] = tested on: HeLa cells; test: Relative cytotoxicity, number of cells normally attached; conditions: 100 nM, 3 hours
Experimental: The relative cytotoxicity of the dimeric bundle peptides according to the present disclosure was compared and analyzed. For this purpose, 1×10^5 HeLa cells were treated with 100 nM of each peptide for 3 hours, washed three times with PBS, and then resuspended in PBS. After 30 minutes, five random photographs of each sample were taken under a light microscope to measure the number of cells normally attached to the cell culture dish.

[5] = tested on: HeLa cells; test: Preferential binding to CCCP-damaged mitochondria, confocal microscopy; assay type: cell-based; conditions: 100 nM 3 hours, 20 μM CCCP
Experimental: To damage mitochondria, treatment with carbonyl cyanide m-chlorophenyl hydrazone (CCCP) at a concentration of 20 μM was performed for 30 minutes.
For microscopic observation, HeLa cells were cultured in glass-bottom dishes (SPL, 200350, Korea). The cells were then treated with peptides for 3 hours and stained with MitoTracker™ (Thermo Fisher Scientific, A1372, USA; 100 nM, 1 hr), nonyl acridine orange (NAO; Thermo Fisher Scientific, A1372; 100 nM, 1 hr), Hoechst 33342 (1 g/mL, 20 min), CellLight™ early endosomes-GFP (Thermo Fisher Scientific, C10586; 2 L/10,000 cells, 16 hr), and/or LysoTracker™ (Thermo Fisher Scientific, L7525; 50 nM, 30 min). The cells were then rinsed with PBS and HBSS was added thereto. Images of the stained cells were obtained using a microscope (Zeiss LSM 880 and ELYRA PS.1). To generate ultra-high resolution images, a structured illumination process was performed with ZEN Black software. Pearson r values were calculated by using ImageJ software.

[6] = tested on: HeLa cells; test: Co-localization with Drp1-eGFP; assay type: cell-based; conditions: HeLa cells transfected with Drp1-eGFP
Experimental: Wild-type Drp1 cDNA (kindly provided by Dr. Sunyong Chung, Ajou University School of Medicine) was amplified by polymerase chain reaction and inserted into the N-terminus of the eGFP gene in the pcDNA3.1-plasmid. Transfection of the plasmid was performed using Lipofectamine™ 3000 (Thermo Fisher Scientific, L3000001) according to the manufacturer's instructions.

[7] = tested on: HeLa cells; conditions: HeLa cells pretreated 3 hours; H2O2, antimycin A, or CCCP
Experimental: (§1) 2×10^4 HeLa cells were seeded in a 96-well plate 24 hours before the experiment. The cells were then stained with MitoSOX™ (Thermo Fisher Scientific, M36008; 5 μM, 10 min) or tetramethylrhodamine ethyl ester (TMRE; Sigma, 87917; 600 nM, 15 min). The cells were washed with PBS, and HBSS was added thereto. Fluorescence signal of the cells was measured with a microplate reader (TECAN) at 37° C. (MitoSox, Ex/Em=510/580 nm; TMRE, Ex/Em=525/575 nm).

[8] = tested on: HeLa cells; test: ATP levels in damaged cells pretreated with peptide; assay type: cell-based; conditions: HeLa cells pretreated 3 hours; H2O2, antimycin A, or CCCP
Experimental: The relative ATP levels of cells were compared by fluorescence intensity according to the method described in Experimental Example 8, and mitochondrial damage was induced by treatment with two different mitochondrial damaging agents (1 μM of antimycin A or 1 mM of H2O2).
Cellular ATP levels were assessed using an ATP detection kit (Abcam, ab113849, USA) according to the manufacturer's instructions. Fluorescence luminescence was measured with a microplate reader (Promega, Glomax 96 microplate luminometer, USA).

[9] = tested on: HeLa cells; conditions: 10 or 30 nM 3 hours, then H2O2 for 1 hour
Experimental: The membrane potential of mitochondria was measured according to the method described in Experimental Example 7.
as §1

[10] = tested on: HeLa cells; test: Co-localization with endosome, lysosome and cardiolipin (NAO) markers; assay type: cell-based; conditions: HeLa cells expressing CellLight early endosomes-GFP, 100 nM 3 hours
Experimental: Next, to investigate whether mitochondrial damage affects the amount of peptide present in lysosomes, cardiolipin-specific targeting was investigated using NAO in the presence or absence of CCCP.
For microscopic observation, HeLa cells were cultured in glass-bottom dishes (SPL, 200350, Korea). The cells were then treated with peptides for 3 hours and stained with MitoTracker™ (Thermo Fisher Scientific, A1372, USA; 100 nM, 1 hr), nonyl acridine orange (NAO; Thermo Fisher Scientific, A1372; 100 nM, 1 hr), Hoechst 33342 ([…], 20 min), CellLight™ early endosomes-GFP (Thermo Fisher Scientific, C10586; […], 16 hr), and/or LysoTracker™ (Thermo Fisher Scientific, L7525; 50 nM, 30 min). The cells were then rinsed with PBS and HBSS was added thereto. Images of the stained cells were obtained using a microscope (Zeiss LSM 880 and ELYRA PS.1). To generate ultra-high resolution images, a structured illumination process was performed with ZEN Black software. Pearson r values were calculated by using ImageJ software.

[11] = tested on: HeLa cells; conditions: EC50 concentration 3 hours, 0.5 mM H2O2
Experimental: Subsequently, after treatment with 0.5 mM of H2O2, the fluorescence was detected and imaged by confocal microscopy. The fluorescence intensity of the cells was calculated with an image analysis program (ZEN blue).
Then, the cells were stained with 2′,7′-dichlorofluorescin diacetate (H2DCFDA; Sigma, 287810, USA; 25 μM, 30 min) and washed twice with PBS. The cells were treated with 500 μM H2O2 in HBSS and incubated for an additional 10 minutes. DCF signal of the cells was detected by confocal microscope and an image thereof was taken. Green signal intensity of each image was calculated using ZEN blue software.

[12] = tested on: HeLa cells; conditions: observed for 4 hours

AcNH-RCRLLRRLRLCR-C(O)NH2 [LR10, peptide included in the L1L, L4L, L5L, and L8L sub-libraries, additional comparison group]
improvement in cell penetration rate as compared with SS-31 [1]: approximately 100 fold
level of EC50 value (cell-penetrating ability) [1]: nanomolar level of EC50 value

XCRLXRRXCR (Ac-[Cha]CRL[Cha]RR[Cha]CR-NH2; cysteine pairing not given here) [CMP3013m, acetyl-capped monomeric peptide, X = Cha]
dissociation from the cardiolipin-containing membrane [2]: did not dissociate from the cardiolipin-containing membrane
greater response unit (RU) for membrane containing 10% cardiolipin versus POPC/POPE membrane alone ([2]; 1 μM peptide): approximately 50%
binding to pathogenically altered membrane (5 to 10% cardiolipin, 10% DLCL) ([3]; POPC:POPE (2:1) liposomes): can bind to a cardiolipin-damaged membrane
slower dissociation from CL-containing membrane than from cardiolipin-free membrane ([3]; competition assay with unlabeled peptide): approximately 10 fold
binding capacity for liposome membranes, CMP3013m versus SS-31 ([3]; liposomes with cardiolipin or di-lysocardiolipin): better binding capacity for all types of membranes

CC(=O)N[C@@H](CC1CCCCC1)C(=O)N[C@H]1CSSC[C@@H](C(=O)N[C@@H](CCCNC(=N)N)C(N)=O)NC(=O)[C@H](CC(C)C)NC(=O)[C@H](CCCNC(=N)N)NC(=O)[C@H](CCCNC(=N)N)NC(=O)[C@H](CC2CCCCC2)NC(=O)[C@H](CC2CCCCC2)NC(=O)[C@H](CCCNC(=N)N)NC(=O)[C@@H](NC(=O)[C@H](CC2CCCCC2)NC(C)=O)CSSC[C@@H](C(=O)N[C@@H](CCCNC(=N)N)C(N)=O)NC(=O)[C@H](CC(C)C)NC(=O)[C@H](CCCNC(=N)N)NC(=O)[C@H](CCCNC(=N)N)NC(=O)[C@H](CC2CCCCC2)NC(=O)[C@H](CC2CCCCC2)NC(=O)[C@H](CCCNC(=N)N)NC1=O [CMP3011] (HELM PEPTIDE1{[ac].[Cha].C.R.[Cha].[Cha].R.R.L.C.R.[am]}|PEPTIDE2{[ac].[Cha].C.R.[Cha].[Cha].R.R.L.C.R.[am]}$PEPTIDE1,PEPTIDE2,3:R3-10:R3|PEPTIDE1,PEPTIDE2,10:R3-3:R3$$$V2.0)
relative cytotoxicity [4]: relatively highest cytotoxicity

CC(=O)N[C@@H](CC1CCCCC1)C(=O)N[C@H]1CSSC[C@@H](C(=O)N[C@@H](CCCNC(=N)N)C(N)=O)NC(=O)[C@H](CC2CCCCC2)NC(=O)[C@H](CCCNC(=N)N)NC(=O)[C@H](CCCNC(=N)N)NC(=O)[C@H](CC2CCCCC2)NC(=O)[C@H](CC(C)C)NC(=O)[C@H](CCCNC(=N)N)NC(=O)[C@@H](NC(=O)[C@H](CC2CCCCC2)NC(=O)c2ccc3c(c2)C(=O)OC32c3ccc(N(C)C)cc3Oc3cc(N(C)C)ccc32)CSSC[C@@H](C(=O)N[C@@H](CCCNC(=N)N)C(N)=O)NC(=O)[C@H](CC2CCCCC2)NC(=O)[C@H](CCCNC(=N)N)NC(=O)[C@H](CCCNC(=N)N)NC(=O)[C@H](CC2CCCCC2)NC(=O)[C@H](CC(C)C)NC(=O)[C@H](CCCNC(=N)N)NC1=O [FL-CMP3013] (HELM PEPTIDE1{[ac].[Cha].C.R.L.[Cha].R.R.[Cha].C.R.[am]}|PEPTIDE2{[CN(C)c1ccc2c(c1)Oc1cc(N(C)C)ccc1C21OC(=O)c2cc(C(=O)[*:2])ccc21].[Cha].C.R.L.[Cha].R.R.[Cha].C.R.[am]}$PEPTIDE1,PEPTIDE2,3:R3-10:R3|PEPTIDE1,PEPTIDE2,10:R3-3:R3$$$V2.0)
targeting of damaged mitochondria [5]: co-localized more with donut-shaped or bulge-shaped mitochondria
co-localization with Drp1 [6]: co-localize perfectly with Drp1
ROS production [7]: inhibited ROS production
ATP production [8]: resumed ATP production
mitochondrial membrane potential [9]: increased by FL-CMP3013 treatment in a concentration-dependent manner
co-localization with endosomal marker [10]: less than 20%
ROS production inhibiting ability [11]: greatest inhibition of ROS production
cell survival after CCCP [12]: survived even after 4 hours

X(dR)XKX(dR)XK [MPP1a, reference compound]
level of EC50 value (cell-penetrating ability) [1]: micromolar level of EC50 value

NBD-NH-XCRLXRRXCR-C(O)NH2 [NBD-CMP3013m]
faster binding to 10% CL liposome versus POPC/POPE liposome alone ([3]; 1 μM NBD-labeled peptide): approximately 10 fold
greater final fluorescence intensity with 10% CL liposome versus POPC/POPE liposome alone ([3]; 1 μM NBD-labeled peptide): 2 fold
